Test results: patent publication US10687543B2, “Probiotic bacterial molecules and their use in methods to treat/prevent infection by harmful bacteria and to provide nutritional health” (priority 2008, dated 2020)

System: E. coli O157:H7 strain VS94
Format: cell-based, Escherichia coli O157:H7

Structure (SMILES): CC(C)NCC(O)COc1cccc2ccccc12 (stereo not drawn) [β-blocker, propanolol]
- % Adherence: 22%
